# Molecular target: T1, Sodium- and chloride-dependent glycine transporter 1 (Rattus norvegicus, UniProt P28572)
# T1 sequence (P28572 whole entry): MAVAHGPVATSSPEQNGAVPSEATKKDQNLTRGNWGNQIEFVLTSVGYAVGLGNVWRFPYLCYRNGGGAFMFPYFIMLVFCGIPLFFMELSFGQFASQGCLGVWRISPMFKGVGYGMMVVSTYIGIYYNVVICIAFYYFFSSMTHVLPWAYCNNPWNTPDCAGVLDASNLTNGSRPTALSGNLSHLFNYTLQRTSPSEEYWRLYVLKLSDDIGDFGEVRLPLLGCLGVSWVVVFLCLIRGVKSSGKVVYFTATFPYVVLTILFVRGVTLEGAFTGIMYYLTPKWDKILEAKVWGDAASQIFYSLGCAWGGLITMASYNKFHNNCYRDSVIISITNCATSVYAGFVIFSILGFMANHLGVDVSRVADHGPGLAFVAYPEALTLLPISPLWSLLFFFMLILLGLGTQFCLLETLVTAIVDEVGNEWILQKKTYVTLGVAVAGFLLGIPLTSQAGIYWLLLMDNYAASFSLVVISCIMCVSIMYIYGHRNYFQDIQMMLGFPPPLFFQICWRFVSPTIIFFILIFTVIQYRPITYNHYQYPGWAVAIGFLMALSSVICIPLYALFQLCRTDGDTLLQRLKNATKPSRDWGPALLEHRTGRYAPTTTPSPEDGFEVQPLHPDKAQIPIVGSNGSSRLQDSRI
# Assay: In vitro glycine reuptake inhibitory activity against glycine transporter type-1 isoform C (GlyT-1c) transporter cells after incubation at 37 degrees for 30 min in presence of 50 nM [3H]glycine.
row,IC50,Compound
1,> 10 µM,NC(C/C=C(\c1ccsc1)c1ccc(F)cc1F)C(=O)O (stereo not given)
2,5.77 µM,CC(C)c1ccc(/C(=C\CC(N)C(=O)O)c2ccsc2)cc1 (stereo not given)
3,> 10 µM,NC(C/C=C(\c1ccc(-c2ccccc2)cc1)c1ccc(F)cc1F)C(=O)O (stereo not given)
4,> 10 µM,CC(C)(C)c1ccc(/C(=C\CC(N)C(=O)O)c2ccc(F)cc2F)cc1 (stereo not given)
5,9.5 µM,NC(C/C=C(\c1ccccc1)c1ccc(F)cc1F)C(=O)O (stereo not given)
6,> 10 µM,NC(C/C=C(\c1cccc(-c2ccccc2)c1)c1ccc(F)cc1F)C(=O)O (stereo not given)
7,> 10 µM,CC(C)c1ccc(/C(=C\CC(N)C(=O)O)c2ccc(-c3ccccc3)cc2)cc1 (stereo not given)
8,> 10 µM,CC(C)c1ccc(/C(=C\CC(N)C(=O)O)c2ccc(C(C)(C)C)cc2)cc1 (stereo not given)
9,> 10 µM,NC(C/C=C(\c1cccnc1)c1ccc(F)cc1F)C(=O)O (stereo not given)
10,> 10 µM,CC(C)c1ccc(/C(=C\CC(N)C(=O)O)c2ccc(F)cc2F)cc1 (stereo not given)
11,> 10 µM,CC(C)c1ccc(C(=CCC(N)C(=O)O)c2ccc(C(C)C)cc2)cc1 (stereo not given)
12,> 10 µM,CC(C)c1ccc(/C(=C/CC(N)C(=O)O)c2ccc(F)cc2F)cc1 (stereo not given)
13,> 10 µM,COc1ccc(/C(=C/CC(N)C(=O)O)c2ccc(C(C)C)cc2)cc1 (stereo not given)
14,> 10 µM,CC(C)c1ccc(/C(=C\CC(N)C(=O)O)c2ccc(C#N)cc2)cc1 (stereo not given)
15,8.02 µM,CC(C)c1ccc(/C(=C\CC(N)C(=O)O)c2ccccc2F)cc1 (stereo not given)
16,8.34 µM,CC(C)c1ccc(/C(=C\CC(N)C(=O)O)c2ccccc2)cc1 (stereo not given)
17,3.4 µM,NC(C/C=C(/c1ccc(-c2ccccc2)cc1)c1ccc(F)cc1F)C(=O)O (stereo not given)
18,6.48 µM,CC(C)c1ccc(/C(=C\CC(N)C(=O)O)c2cccnc2)cc1 (stereo not given)
19,> 10 µM,COc1ccc(/C(=C\CC(N)C(=O)O)c2ccc(F)cc2F)cc1 (stereo not given)
20,> 10 µM,CC(C)c1cccc(/C(=C\CC(N)C(=O)O)c2ccc(F)cc2F)c1 (stereo not given)
21,> 10 µM,NC(C/C=C(\c1ccc2ccccc2c1)c1ccc(F)cc1F)C(=O)O (stereo not given)
22,8.92 µM,NC(C/C=C(/c1ccc(F)cc1F)c1ccccc1-c1ccccc1)C(=O)O (stereo not given)
23,> 10 µM,CCc1ccc(/C(=C\CC(N)C(=O)O)c2ccc(F)cc2F)cc1CC (stereo not given)
24,9.56 µM,Cc1ccc(/C(=C\CC(N)C(=O)O)c2ccc(F)cc2F)cc1 (stereo not given)
25,> 10 µM,CCc1ccc(/C(=C\CC(N)C(=O)O)c2ccc(F)cc2F)cc1 (stereo not given)
26,> 10 µM,N#Cc1ccc(/C(=C\CC(N)C(=O)O)c2ccc(F)cc2F)cc1 (stereo not given)

# Molecular target: T2, Sodium- and chloride-dependent glycine transporter 2 (Rattus norvegicus, UniProt P58295)
# T2 sequence (P58295 whole entry): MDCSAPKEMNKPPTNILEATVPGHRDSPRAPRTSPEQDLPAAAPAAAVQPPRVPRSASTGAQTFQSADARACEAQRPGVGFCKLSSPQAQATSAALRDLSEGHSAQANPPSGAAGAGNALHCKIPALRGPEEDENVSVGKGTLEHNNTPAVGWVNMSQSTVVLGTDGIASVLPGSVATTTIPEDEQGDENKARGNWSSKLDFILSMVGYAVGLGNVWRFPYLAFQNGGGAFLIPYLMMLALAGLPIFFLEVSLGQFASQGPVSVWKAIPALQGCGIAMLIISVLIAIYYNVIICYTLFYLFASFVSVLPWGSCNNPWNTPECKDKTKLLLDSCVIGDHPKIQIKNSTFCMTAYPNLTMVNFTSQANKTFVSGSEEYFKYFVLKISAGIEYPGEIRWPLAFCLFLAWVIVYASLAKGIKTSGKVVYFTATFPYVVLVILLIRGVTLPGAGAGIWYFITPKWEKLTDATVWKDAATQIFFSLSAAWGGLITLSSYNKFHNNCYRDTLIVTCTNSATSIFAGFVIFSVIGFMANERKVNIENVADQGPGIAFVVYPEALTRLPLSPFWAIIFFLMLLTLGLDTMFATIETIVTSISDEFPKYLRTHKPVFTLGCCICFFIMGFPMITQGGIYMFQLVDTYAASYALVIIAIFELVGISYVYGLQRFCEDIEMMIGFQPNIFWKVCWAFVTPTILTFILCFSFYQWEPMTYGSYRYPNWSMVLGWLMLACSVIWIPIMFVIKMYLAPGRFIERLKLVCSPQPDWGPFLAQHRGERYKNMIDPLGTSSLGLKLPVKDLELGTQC
# Assay: In vitro glycine reuptake inhibitory activity against glycine transporter type-2 (GlyT-2) transporter cells after incubation at 37 degrees for 30 min in presence of 50 nM [3H]glycine.
row,IC50,Compound
1,5.88 µM,NC(C/C=C(\c1ccsc1)c1ccc(F)cc1F)C(=O)O (stereo not given)
2,1.03 µM,CC(C)c1ccc(/C(=C\CC(N)C(=O)O)c2ccsc2)cc1 (stereo not given)
3,3.66 µM,NC(C/C=C(\c1ccc(-c2ccccc2)cc1)c1ccc(F)cc1F)C(=O)O (stereo not given)
4,1.74 µM,CC(C)(C)c1ccc(/C(=C\CC(N)C(=O)O)c2ccc(F)cc2F)cc1 (stereo not given)
5,6.44 µM,NC(C/C=C(\c1ccccc1)c1ccc(F)cc1F)C(=O)O (stereo not given)
6,1.34 µM,NC(C/C=C(\c1cccc(-c2ccccc2)c1)c1ccc(F)cc1F)C(=O)O (stereo not given)
7,2.06 µM,CC(C)c1ccc(/C(=C\CC(N)C(=O)O)c2ccc(-c3ccccc3)cc2)cc1 (stereo not given)
8,5.47 µM,CC(C)c1ccc(/C(=C\CC(N)C(=O)O)c2ccc(C(C)(C)C)cc2)cc1 (stereo not given)
9,> 10 µM,NC(C/C=C(\c1cccnc1)c1ccc(F)cc1F)C(=O)O (stereo not given)
10,0.33 µM,CC(C)c1ccc(/C(=C\CC(N)C(=O)O)c2ccc(F)cc2F)cc1 (stereo not given)
11,2.03 µM,CC(C)c1ccc(C(=CCC(N)C(=O)O)c2ccc(C(C)C)cc2)cc1 (stereo not given)
12,> 10 µM,CC(C)c1ccc(/C(=C/CC(N)C(=O)O)c2ccc(F)cc2F)cc1 (stereo not given)
13,1.16 µM,COc1ccc(/C(=C/CC(N)C(=O)O)c2ccc(C(C)C)cc2)cc1 (stereo not given)
14,2.64 µM,CC(C)c1ccc(/C(=C\CC(N)C(=O)O)c2ccc(C#N)cc2)cc1 (stereo not given)
15,0.29 µM,CC(C)c1ccc(/C(=C\CC(N)C(=O)O)c2ccccc2F)cc1 (stereo not given)
16,0.4 µM,CC(C)c1ccc(/C(=C\CC(N)C(=O)O)c2ccccc2)cc1 (stereo not given)
17,2.4 µM,NC(C/C=C(/c1ccc(-c2ccccc2)cc1)c1ccc(F)cc1F)C(=O)O (stereo not given)
18,0.365 µM,N[C@@H](C/C=C(\c1ccc2ccccc2c1)c1ccc(F)cc1F)C(=O)O
19,5.93 µM,CC(C)c1ccc(/C(=C\CC(N)C(=O)O)c2cccnc2)cc1 (stereo not given)
20,2.03 µM,COc1ccc(/C(=C\CC(N)C(=O)O)c2ccc(F)cc2F)cc1 (stereo not given)
21,1.59 µM,CC(C)c1cccc(/C(=C\CC(N)C(=O)O)c2ccc(F)cc2F)c1 (stereo not given)
22,0.77 µM,NC(C/C=C(\c1ccc2ccccc2c1)c1ccc(F)cc1F)C(=O)O (stereo not given)
23,2.75 µM,NC(C/C=C(/c1ccc(F)cc1F)c1ccccc1-c1ccccc1)C(=O)O (stereo not given)
24,0.15 µM,CC(C)c1ccc(/C(=C\C[C@H](N)C(=O)O)c2ccc(F)cc2F)cc1
25,0.66 µM,CCc1ccc(/C(=C\CC(N)C(=O)O)c2ccc(F)cc2F)cc1CC (stereo not given)
26,1.17 µM,Cc1ccc(/C(=C\CC(N)C(=O)O)c2ccc(F)cc2F)cc1 (stereo not given)
27,0.283 µM,CCc1ccc(/C(=C\C[C@H](N)C(=O)O)c2ccc(F)cc2F)cc1CC
28,0.46 µM,CCc1ccc(/C(=C\CC(N)C(=O)O)c2ccc(F)cc2F)cc1 (stereo not given)
29,> 10 µM,N#Cc1ccc(/C(=C\CC(N)C(=O)O)c2ccc(F)cc2F)cc1 (stereo not given)

# From ChEMBL document CHEMBL1134076, “5,5-Diaryl-2-amino-4-pentenoates as novel, potent, and selective glycine transporter type-2 reuptake inhibitors” (Bioorg Med Chem Lett, 2001)
